Data published in the supplement of paper PMC4862054.

What was measured:
BT-474 [1] = details: 72 h
How it was run: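 To measure viability, fluorescence at 560/590 nm was read after 2.5 µl CellTiter-Blue had been added for 2 h at 37 °C. Cells from breast cancer lines had been seeded in 20 µl suspension onto 384-well plates pre-loaded with compound dissolved in 5 µl medium and kept for 72 h. EC50 comes from a fitted percent-inhibition dose-response curve censored at the highest concentration, after per-plate normalisation to vehicle and a positive kill control, Z'-factor checks, and removal of rows with zero drug sensitivity score.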

HCC1937 [2] = details: 72 h
Procedure: (§1)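 Drug sensitivity and resistance testing (DSRT) of breast cancer cell lines in 384-well plates, 5 concentrations in 10-fold dilutions over a compound-specific 10,000-fold range. After 72 h, cytotoxicity was read by CellTox Green fluorescence and viability by CellTiter-Glo luminescence (multiplexed), normalised to DMSO and benzethonium chloride controls. EC50 is the inflection point of the fitted dose-response curve (bottom asymptote free, so it can be relative for partial curves) and is censored at the highest tested concentration. Rows with DSS 0 (no meaningful response) were excluded.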

MDA-MB-468 [3] = details: 72 h
Procedure: as §1

CAL-148 = details: 72 h
Procedure: as §1

BT-474 [4] = details: 72 h; remark: listed apart in the source
Procedure: as §1

Hs578T [5] = details: 72 h
Procedure: as §1

MFM-223 [6] = details: 72 h
Procedure: as §1

MCF-10A [7] = details: 72 h
Procedure: as §1

HCC1143 = details: 72 h
Procedure: as §1

CAL-120 = details: 72 h
Procedure: as §1

HDQ-P1 [8] = details: 72 h
Procedure: as §1

DU-4475 [9] = details: 72 h
Procedure: as §1

CAL-85-1 [10] = details: 72 h
Procedure: as §1

MDA-MB-436 = details: 72 h
Procedure: as §1

BT-549 [11] = test: normalised response (% of control), CellTiter-Glo; higher = more viable cells (100 = DMSO, 0 = benzethonium chloride kill control); details: incubation time: 72 h
How it was run: (§2)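 Two readouts were taken after 72 h: CellTox Green fluorescence (485/520 nm) first, then CellTiter-Glo luminescence after 10 min at room temperature. Breast cancer cell lines had been seeded as 20 µl suspension into 384-well plates holding compound at 5 concentrations in 10-fold steps across a compound-specific 10,000-fold range. Each value is a normalised signal at a single concentration, with plates scaled to 0.1 % DMSO (100) and a positive kill control (0).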

SK-BR-3 = test: as above; details: incubation time: 72 h
How it was run: as §2

HCC1599 = test: as above; details: incubation time: 72 h
How it was run: as §2

DU-4475 [12] = test: as above; details: incubation time: 72 h
How it was run: as §2

HCC1937 [13] = test: as above; details: incubation time: 72 h
How it was run: as §2

MDA-MB-468 [14] = test: as above; details: incubation time: 72 h
How it was run: as §2

CAL-85-1 [15] = test: as above; details: incubation time: 72 h
How it was run: as §2

BT-474 [16] = test: as above; details: incubation time: 72 h
How it was run: as §2

Hs578T [17] = test: as above; details: incubation time: 72 h
How it was run: as §2

MFM-223 [18] = test: as above; details: incubation time: 72 h
How it was run: as §2

HDQ-P1 [19] = test: as above; details: incubation time: 72 h
How it was run: as §2

MCF-10A [20] = test: as above; details: incubation time: 72 h
How it was run: as §2

MDA-MB-231 = test: as above; details: incubation time: 72 h
How it was run: as §2

BT-549 [21] = details: 72 h
Procedure: as §1

With `COc1ncc(-c2ccc3nccc(-c4ccnnc4)c3c2)cc1NS(=O)(=O)c1ccc(F)cc1F` the “EC50, CellTiter-Blue viability” value (BT-474 [1]) was 13.5 nM, the “EC50, CellTox Green” value (HCC1937 [2]) was 299 nM and the “EC50, CellTox Green” value (MDA-MB-468 [3]) was 160 nM. For the same molecule, the “EC50, CellTox Green” value (CAL-148) was 74.7 nM, the “EC50, CellTox Green” value (BT-474 [4]) was 134 nM and the “EC50, CellTox Green” value (Hs578T [5]) was 511 nM. The “EC50, CellTox Green” value (MFM-223 [6]) was 22.4 nM and the “EC50, CellTox Green” value (MCF-10A [7]) was 349 nM.
In the case of `C[C@@]1(C(=O)Nc2ccc(F)nc2)CCCN1c1nc(Nc2cc(C3CC3)n[nH]2)c2cccn2n1`, the “EC50, CellTox Green” value (HCC1143) is reported as 1350 nM, the “EC50, CellTox Green” value (MDA-MB-468 [3]) is reported as 3.79 nM and the “EC50, CellTox Green” value (CAL-120) is reported as 4500 nM. For the same molecule, the “EC50, CellTox Green” value (CAL-148) was > 10000 nM, the “EC50, CellTox Green” value (MFM-223 [6]) was 587 nM and the “EC50, CellTox Green” value (HDQ-P1 [8]) was 5000 nM. For the same molecule, the “EC50, CellTox Green” value (MCF-10A [7]) was 3230 nM.
`Nc1nccc(-c2c(-c3ccc(F)cc3)ncn2C2CCCCC2)n1` was tested, and the “EC50, CellTox Green” value (MCF-10A [7]) was 4810 nM.
With `COc1c(C)cnc(Cn2cnc3c(Cl)nc(N)nc32)c1C` [BIIB021] the “EC50, CellTiter-Blue viability” value (BT-474 [1]) was 93.7 nM, the “EC50, CellTox Green” value (DU-4475 [9]) was 293 nM and the “EC50, CellTox Green” value (CAL-148) was 84.5 nM. For the same molecule, the “EC50, CellTox Green” value (CAL-85-1 [10]) was 3950 nM, the “EC50, CellTox Green” value (BT-474 [4]) was 1790 nM and the “EC50, CellTox Green” value (Hs578T [5]) was 321 nM. For the same molecule, the “EC50, CellTox Green” value (HDQ-P1 [8]) was 1960 nM and the “EC50, CellTox Green” value (MCF-10A [7]) was 189 nM.
With `COc1cccc2c1C(=O)c1c(O)c3c(c(O)c1C2=O)C[C@@](O)(C(C)=O)C[C@@H]3O[C@H]1C[C@H](N)[C@H](O)[C@H](C)O1` [Daunorubicin] the “EC50, CellTiter-Blue viability” value (BT-474 [1]) was 160 nM, the “EC50, CellTox Green” value (MDA-MB-468 [3]) was 100 nM and the “EC50, CellTox Green” value (MDA-MB-436) was 953 nM.
For `O=c1[nH]c(=O)n([C@H]2C[C@H](O)[C@@H](CO)O2)cc1F` [Floxuridine], the “EC50, CellTox Green” value (CAL-85-1 [10]) was 4650 nM and the “EC50, CellTox Green” value (HDQ-P1 [8]) was 3070 nM.
With `O=c1[nH]cc(F)c(=O)[nH]1` [Fluorouracil] the “EC50, CellTox Green” value (MDA-MB-436) was 7050 nM.
With `C[C@@H]1C=C2C(=O)O[C@@H]3CC[C@H](C1)[C@]23O` [Galiellalactone] the “EC50, CellTiter-Blue viability” value (BT-474 [1]) was 28900 nM and the “EC50, CellTox Green” value (CAL-85-1 [10]) was 47400 nM.
For `CS(=O)(=O)CCNCc1ccc(-c2ccc3ncnc(Nc4ccc(OCc5cccc(F)c5)c(Cl)c4)c3c2)o1` [Lapatinib], the “EC50, CellTiter-Blue viability” value (BT-474 [1]) was 137 nM and the “EC50, CellTox Green” value (MCF-10A [7]) was 678 nM.
With `Cn1cnc2c(F)c(Nc3ccc(Br)cc3F)c(C(=O)NOCCO)cc21` [MEK-162] the “EC50, CellTox Green” value (DU-4475 [9]) was 508 nM and the “EC50, CellTox Green” value (HDQ-P1 [8]) was 123 nM.
`CCOc1cc2ncc(C#N)c(Nc3ccc(OCc4ccccn4)c(Cl)c3)c2cc1NC(=O)/C=C/CN(C)C` [Neratinib] was tested, and the “EC50, CellTox Green” value (MDA-MB-468 [3]) was 149 nM, the “EC50, CellTox Green” value (CAL-148) was 791 nM and the “EC50, CellTox Green” value (CAL-85-1 [10]) was 211 nM.
In the case of `COc1ccc(C2=N[C@@H](c3ccc(Cl)cc3)[C@@H](c3ccc(Cl)cc3)N2C(=O)N2CCNC(=O)C2)c(OC(C)C)c1` [Nutlin-3], the “EC50, CellTox Green” value (CAL-148) is reported as 9050 nM.
`COc1ccc(C2=N[C@@H](c3ccc(Cl)cc3)[C@@H](c3ccc(Cl)cc3)N2C(=O)N2CCNC(=O)C2)c(OC(C)C)c1` [Nutlin-3] (1000 nM) was tested, and the normalised response (BT-549 [11]) was 100%, the normalised response (SK-BR-3) was 109% and the normalised response (HCC1599) was 117%. The normalised response (DU-4475 [12]) was 96.5%, the normalised response (HCC1937 [13]) was 102% and the normalised response (MDA-MB-468 [14]) was 99.9%. It also gave a normalised response (CAL-85-1 [15]) of 96.8%, a normalised response (BT-474 [16]) of 98.9% and a normalised response (Hs578T [17]) of 106%. The normalised response (MFM-223 [18]) was 104%, the normalised response (HDQ-P1 [19]) was 105% and the normalised response (MCF-10A [20]) was 102%. The normalised response (MDA-MB-231) was 106%.
For `COC1=CC(c2cc3ccccc3[nH]2)=N/C1=C\c1[nH]c(C)cc1C` [Obatoclax], the “EC50, CellTiter-Blue viability” value (BT-474 [1]) was 124 nM.
`COC1=CC(c2cc3ccccc3[nH]2)=N/C1=C\c1[nH]c(C)cc1C` [Obatoclax] (1000 nM) gave a normalised response (BT-549 [11]) of 77.3%, a normalised response (SK-BR-3) of 87% and a normalised response (HCC1599) of 97.1%. It also gave a normalised response (DU-4475 [12]) of 89.7%, a normalised response (HCC1937 [13]) of 63.4% and a normalised response (MDA-MB-468 [14]) of 83%. For the same molecule, the normalised response (CAL-85-1 [15]) was 76.6%, the normalised response (BT-474 [16]) was 65.4% and the normalised response (Hs578T [17]) was 91.7%. The normalised response (MFM-223 [18]) was 93.7%, the normalised response (HDQ-P1 [19]) was 97% and the normalised response (MCF-10A [20]) was 92.8%. It also gave a normalised response (MDA-MB-231) of 64%.
In the case of `COC(=O)C[C@](O)(CCCC(C)(C)O)C(=O)O[C@@H]1C(OC)=C[C@]23CCCN2CCc2cc4c(cc2[C@H]13)OCO4` [Omacetaxine], the “EC50, CellTiter-Blue viability” value (BT-474 [1]) is reported as 92.8 nM, the “EC50, CellTox Green” value (BT-549 [21]) is reported as 260 nM and the “EC50, CellTox Green” value (MDA-MB-468 [3]) is reported as 388 nM. The “EC50, CellTox Green” value (CAL-148) was 2670 nM, the “EC50, CellTox Green” value (CAL-85-1 [10]) was 41.7 nM and the “EC50, CellTox Green” value (BT-474 [4]) was 5890 nM. For the same molecule, the “EC50, CellTox Green” value (Hs578T [5]) was 40.8 nM, the “EC50, CellTox Green” value (MFM-223 [6]) was 63.7 nM and the “EC50, CellTox Green” value (HDQ-P1 [8]) was 689 nM. The “EC50, CellTox Green” value (MCF-10A [7]) was 770 nM and the “EC50, CellTox Green” value (MDA-MB-436) was 7440 nM.
